According to publication PMC8175309, “Translational CNS Steady-State Drug Disposition Model in Rats, Monkeys, and Humans for Quantitative Prediction of Brain-to-Plasma and Cerebrospinal Fluid-to-Plasma Unbound Concentration Ratios” (The AAPS Journal, 2021):
Like-named read-outs stand apart in the source and are kept apart here.

How the values were obtained:
MDR1 = MDR1 (Homo sapiens, UniProt P08183); assay: in vitro; conditions: dog, MDCK-MDR1, pH 7.4
Experimental: (§1) To the compounds available internally, in vitro efflux ratios for MDR1 and BCRP were determined by the following procedure (Supplemental Table 2). Test compound stock solutions in dimethyl sulfoxide (DMSO) were diluted in transport buffer (Hanks’ balanced salt solution (HBSS) with 10 mM HEPES, pH 7.4) to a concentration of 1 μM (DMSO < 1%) and applied to the apical or basolateral side of a cell monolayer derived from Madin-Darby canine kidney (MDCK)-MDR1 and MDCK-BCRP cells. Permeation of the test compounds from apical to basolateral (A to B) direction or B to A direction was measured in duplicate. The plate was incubated for 1 h in a CO2 incubator at 37±1°C with 5% CO2 at saturated humidity without shaking. In addition, the efflux ratio of each compound was also determined. Test and reference compounds were quantified by LC-MS/MS analysis based on the peak area ratio of analyte/internal standard.
(§2) The apparent permeability coefficient Papp (cm/s) was calculated by using Eq. 1: 1 Papp=dCr/dt×Vr/A×C0 where dCr/dt is the cumulative concentration of the compound in the receiver chamber as a function of time (μM/s); Vr is the volume of the solution in the receiver chamber (0.075 mL on the apical side, 0.25 mL on the basolateral side); A is the surface area for transport, i.e., 0.0804 cm^2 for the area of the monolayer; and C0 is the initial concentration (μM) in the donor chamber.
(§3) The efflux ratio was calculated using Eq. 2: 2 Efflux ratio=Papp,BtoA/Papp,AtoB

BCRP = molecular target: T1, BCRP (Homo sapiens, UniProt Q9UNQ0); assay: Transcellular transport across MDCK-BCRP cell monolayers (efflux ratio); conditions: dog, pH 7.4
T1 sequence (Q9UNQ0 1-655): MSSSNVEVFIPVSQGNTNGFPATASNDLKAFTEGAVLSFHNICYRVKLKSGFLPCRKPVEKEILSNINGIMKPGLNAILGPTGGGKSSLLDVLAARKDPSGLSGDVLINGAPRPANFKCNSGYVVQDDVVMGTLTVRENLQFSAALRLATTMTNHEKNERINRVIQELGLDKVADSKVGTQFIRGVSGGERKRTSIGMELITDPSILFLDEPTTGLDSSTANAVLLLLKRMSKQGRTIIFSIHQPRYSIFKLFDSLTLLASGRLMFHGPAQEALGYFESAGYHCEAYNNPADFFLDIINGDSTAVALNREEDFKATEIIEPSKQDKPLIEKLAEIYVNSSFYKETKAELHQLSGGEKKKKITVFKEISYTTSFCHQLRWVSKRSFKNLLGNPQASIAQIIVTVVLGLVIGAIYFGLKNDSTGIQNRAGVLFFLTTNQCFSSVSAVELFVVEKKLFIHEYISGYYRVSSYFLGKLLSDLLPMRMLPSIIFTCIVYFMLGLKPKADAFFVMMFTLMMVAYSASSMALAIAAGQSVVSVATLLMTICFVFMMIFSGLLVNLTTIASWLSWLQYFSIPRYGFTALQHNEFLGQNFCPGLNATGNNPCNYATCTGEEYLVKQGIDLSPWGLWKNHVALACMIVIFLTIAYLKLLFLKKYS
Experimental: as §1, §2, §3

[1] = cited from earlier work
[2] = cited from earlier work; remark: listed apart in the source
in vivo [3] = conditions: for Kp uu at 6 h: cynomolgus monkey, in vivo
Experimental: Monkey experiments were conducted internally or at the Drug Safety Research Laboratories in Shin Nippon Biomedical Laboratories via consignment to Axcelead Drug Discovery Partners. […] Detailed dosage regimen for each compound is summarized in Supplemental Table 3. […] Each cassette was assigned to a separate group of monkeys. The vehicle was saline or a mixture of dimethylacetamide and 1,3-butanediol (1:1, v/v). At the end of the 6-h infusion or 1 h after intravenous bolus administration, the monkeys were anesthetized, and whole blood, CSF, and whole brain were collected. Blood was collected using the anticoagulant, heparin sodium, and immediately centrifuged; the plasma was transferred to polypropylene tubes. Then, ketamine hydrochloride (50 mg/mL; 0.2 mL/kg; 10 mg/kg) was intramuscularly administered. CSF was collected after lumbar puncture using a spinal needle (22–25G) and a syringe pre-wetted with 10% CHAPS solution to prevent adsorption of compounds to all the equipment during pretreatment. CSF samples were immediately centrifuged, and the supernatant layers were transferred to polypropylene tubes. […] After collecting the cerebellum, hippocampus, and cerebral cortex from the whole brain, these were washed with cold saline, weighed, and homogenized immediately in 4 volumes of ice-cold 100 mmol/L sodium phosphate buffer. All samples were stored at –80°C until analysis by LC-MS/MS. Each sample (50 μL) was mixed with the working solution (the mixture of dimethyl sulfoxide and acetonitrile (2:8, v/v)), and protein was precipitated by the addition of 150 μL acetonitrile containing the internal standards (5 ng/mL alprenolol and diclofenac). After centrifugation at 5,250 rpm and 4°C for 5 min, the supernatant (150 μL) was transferred to a polypropylene 96-well plate (Corning; Corning, NY, USA) and completely evaporated under a gentle stream of N2. The residue was reconstituted in dilution solution (mobile phase A/B (7:3, v/v)), and the supernatant was analyzed by LC-MS/MS.
Each sample (50 μL) was mixed with the working solution (the mixture of dimethyl sulfoxide and acetonitrile (2:8, v/v)), and the protein was precipitated by adding 150 μL acetonitrile containing internal standards (5 ng/mL alprenolol and diclofenac). After centrifugation at 5250 rpm and 4°C for 5 min, the supernatant (150 μL) was transferred to a polypropylene 96-well plate (Corning) and completely evaporated under a gentle stream of N2. The residue was reconstituted in mobile phase A/B (7:3, v/v)), and the supernatant was analyzed by LC-MS/MS. API5000 and QTRAP5500 (AB SCIEX, Framingham, MA, USA) equipped with Ultra-Fast Liquid Chromatography (Shimadzu, Kyoto, Japan) were used for determination of drug concentrations. Reversed-phase chromatography was performed using Shim-pack XR ODS (2.2 μm, 2.0×30 mm). Mobile phase A consisted of 10 mM ammonium formate with 0.2% formic acid, and mobile phase B contained acetonitrile with 0.2% formic acid. […] The mass spectrometer was operated in the positive ionization mode with multiple reaction monitoring (MRM). The MRM parameters (Q1 ion, Q3 ion, DP, EP, CE, and CXP) for monitoring the compounds are shown in Supplemental Table 4. Data acquisition and processing were performed using Analyst 1.6.2 (AB SCIEX, Framingham, MA, USA).
(§4) To perform correlation analyses between the observed Kp,uu,brain and Kp,uu,CSF, and the model-based prediction of Kp,uu,brain and Kp,uu,CSF, data from literature information were integrated into the internally obtained data for these assessments (Supplemental Table 2) ([17],[22]–[24],[27]–[33]). When only the total concentrations in plasma, CSF, and brain were available, the total concentration ratio in plasma to CSF or brain (Kp,CSF or Kp,brain, respectively) was estimated, followed by calculation of Kp,uu,CSF or Kp,uu,brain based on Eqs.

[4] = monkey, cited from earlier work
in vivo [5] = conditions: in vivo; for Kp uu: rat
Experimental: The CSF samples collected from cisterna magna in rats were stored at –80°C until analysis by liquid chromatography-tandem mass spectrometry (LC-MS/MS). Before performing the LC-MS/MS analysis, these samples were thawed on ice and mixed with three volumes of acetonitrile. The acetonitrile mixtures were vortexed and centrifuged, and the supernatant was collected. After dilution with mobile phase A (a mixture of 10 mM ammonium formate and formic acid at 100:0.2 (v/v)), the supernatant was injected into the LC-MS/MS system.
as §4

Chain of MDR1 (P08183 whole entry): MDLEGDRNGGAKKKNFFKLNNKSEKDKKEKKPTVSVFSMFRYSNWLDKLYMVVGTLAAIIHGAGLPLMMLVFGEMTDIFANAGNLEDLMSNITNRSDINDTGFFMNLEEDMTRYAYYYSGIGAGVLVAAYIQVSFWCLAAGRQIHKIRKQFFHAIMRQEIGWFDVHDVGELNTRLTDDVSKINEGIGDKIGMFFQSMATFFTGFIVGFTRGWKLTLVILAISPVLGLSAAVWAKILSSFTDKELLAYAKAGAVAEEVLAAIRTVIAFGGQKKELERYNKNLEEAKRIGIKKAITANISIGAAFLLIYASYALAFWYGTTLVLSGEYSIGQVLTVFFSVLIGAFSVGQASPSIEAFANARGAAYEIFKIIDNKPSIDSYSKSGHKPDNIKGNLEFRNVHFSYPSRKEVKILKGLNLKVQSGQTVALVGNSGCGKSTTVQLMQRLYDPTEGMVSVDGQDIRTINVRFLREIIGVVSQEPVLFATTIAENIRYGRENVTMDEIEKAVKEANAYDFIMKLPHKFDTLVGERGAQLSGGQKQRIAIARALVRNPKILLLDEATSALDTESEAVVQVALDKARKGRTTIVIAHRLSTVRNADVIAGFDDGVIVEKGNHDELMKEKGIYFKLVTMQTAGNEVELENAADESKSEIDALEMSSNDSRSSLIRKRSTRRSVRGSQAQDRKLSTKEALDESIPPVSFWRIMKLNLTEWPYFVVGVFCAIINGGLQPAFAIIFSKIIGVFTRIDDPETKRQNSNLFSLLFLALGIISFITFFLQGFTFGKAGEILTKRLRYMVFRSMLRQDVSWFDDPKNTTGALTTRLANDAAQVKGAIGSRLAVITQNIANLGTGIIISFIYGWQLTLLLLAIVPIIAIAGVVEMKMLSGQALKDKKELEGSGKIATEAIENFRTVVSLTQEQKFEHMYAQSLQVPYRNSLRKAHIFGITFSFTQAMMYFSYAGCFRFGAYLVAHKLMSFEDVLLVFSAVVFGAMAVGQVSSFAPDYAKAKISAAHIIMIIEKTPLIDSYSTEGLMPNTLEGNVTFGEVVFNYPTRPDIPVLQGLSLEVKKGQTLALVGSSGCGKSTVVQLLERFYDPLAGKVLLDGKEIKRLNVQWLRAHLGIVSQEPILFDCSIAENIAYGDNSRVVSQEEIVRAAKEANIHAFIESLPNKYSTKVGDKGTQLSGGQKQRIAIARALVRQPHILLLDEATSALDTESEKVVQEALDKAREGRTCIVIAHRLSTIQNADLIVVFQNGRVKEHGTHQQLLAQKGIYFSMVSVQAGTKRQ

For `CC(C)NCC(O)COc1cccc2[nH]ccc12` (centres unmarked) [Pindolol], the efflux ratio at 1 h, 1 μM (MDR1) is given as 5.7, the efflux ratio at 1 h, 1 μM (BCRP) is given as 1.2 and the “Kp,uu,CSF Rat” value ([1]; *4 ref Friden et al. (21)) is given as 0.11. The “Kp,uu,brain Rat” value ([1]; *4 ref Friden et al. (21)) was 0.500 and the “Kp,uu,CSF Human” value ([2]; *4 ref Friden et al. (21)) was 0.52.

With `COc1cc2nc(N3CCN(C(=O)c4ccco4)CC3)nc(N)c2cc1OC` [Prazosin] the efflux ratio at 1 h, 1 μM (MDR1) was 52, the efflux ratio at 1 h, 1 μM (BCRP) was 18 and the Kp uu at 6 h (in vivo [3]; Kp,uu,CSF Monkey) was 0.289. For the same compound, the Kp uu at 6 h (in vivo [3]; Kp,uu,brain Monkey) was 0.253.

For `CC(C)NCC(O)COc1cccc2ccccc12` (centres unmarked) [Propranolol], the efflux ratio at 1 h, 1 μM (BCRP) is listed as 1, the “Kp,uu,CSF Monkey” value ([4]; *9 ref Nagaya et al. (19)) is listed as 0.461 and the “Kp,uu,brain Monkey” value ([4]; *9 ref Nagaya et al. (19)) is listed as 0.947. The “Kp,uu,CSF Rat” value ([1]; *4 ref Friden et al. (21)) was 0.49 and the “Kp,uu,CSF Human” value ([2]; *4 ref Friden et al. (21)) was 0.42.

With `C=C[C@H]1C[N@@]2CC[C@H]1C[C@@H]2[C@@H](O)c1ccnc2ccc(OC)cc12` [Quinidine] the efflux ratio at 1 h, 1 μM (BCRP) was 0.9, the Kp uu (in vivo [5]; Kp,uu,CSF Rat) was 0.419 and the Kp uu (in vivo [5]; Kp,uu,brain Rat) was 0.0359. For the same compound, the “Kp,uu,brain Monkey” value ([4]; *8 ref Uchida et al. (31)) was 0.0744, the “Kp,uu,CSF Monkey” value ([4]; *9 ref Nagaya et al. (19)) was 0.169 and the “Kp,uu,brain Monkey” value ([4]; *9 ref Nagaya et al. (19)) was 0.0658. The “Kp,uu,CSF Rat” value ([1]; *7 ref Kodaira et al. (20)) was 0.0911 and the “Kp,uu,brain Rat” value ([1]; *7 ref Kodaira et al. (20)) was 0.026.

For `CN[C@H]1CC[C@@H](c2ccc(Cl)c(Cl)c2)c2ccccc21` [Sertraline], the efflux ratio at 1 h, 1 μM (MDR1) was 0.5 and the efflux ratio at 1 h, 1 μM (BCRP) was 1.2.

With `CNC(=O)c1cc(Oc2ccc(NC(=O)Nc3ccc(Cl)c(C(F)(F)F)c3)cc2)ccn1` [Sorafenib] the “Kp,uu,CSF Rat” value (in vivo [5]) was 2.06, the “Kp,uu,brain Rat” value (in vivo [5]) was 0.0228 and the “Kp,uu,CSF Monkey” value (in vivo [3]; monkey, lumbar CSF, *1 data internally obtained) was 0.0798. The “Kp,uu,brain Monkey” value (in vivo [3]; monkey, *1 data internally obtained) was 0.0199.

For `Nc1c2c(nc3ccccc13)CCCC2` [Tacrine], the efflux ratio at 1 h, 1 μM (MDR1) is given as 1, the efflux ratio at 1 h, 1 μM (BCRP) is given as 1.1 and the “Kp,uu,CSF Rat” value ([1]; in vivo) is given as 0.67. For the same compound, the “Kp,uu,CSF Human” value ([2]; in vivo) was 0.74.

In the case of `CC1(C)O[C@@H]2[C@@H](CO[C@@]3(COS(N)(=O)=O)OC(C)(C)O[C@@H]23)O1` [Topiramate], the efflux ratio at 1 h, 1 μM (MDR1) is listed as 25, the efflux ratio at 1 h, 1 μM (BCRP) is listed as 0.7 and the “Kp,uu,CSF Rat” value ([1]; *4 ref Friden et al. (21)) is listed as 0.63. The “Kp,uu,brain Rat” value ([1]; *4 ref Friden et al. (21)) was 0.330 and the “Kp,uu,CSF Human” value ([2]; *4 ref Friden et al. (21)) was 1.

In the case of `COc1ccc(C(CN(C)C)C2(O)CCCCC2)cc1` (centres unmarked) [Venlafaxine], the efflux ratio at 1 h, 1 μM (MDR1) is given as 7.6, the efflux ratio at 1 h, 1 μM (BCRP) is given as 0.7 and the “Kp,uu,brain Rat” value ([1]; *3 ref Summerfield et al. (25)) is given as 1.074. The “Kp,uu,brain Human” value ([2]; *3 ref Summerfield et al. (25)) was 0.86.
